Where two headings read alike, the source gives them in different places.
How the values were obtained:
[1] = biological target: T1, 14-3-3σ/C-RAF (Homo sapiens, UniProt P31947); test: Mass spectrometry dose response, compound binding to 14-3-3σ in the presence of C-RAF phosphopeptide; details: 100 nM compound, 100 nM 14-3-3σ, C-RAF peptide 18 µM
T1 construct: The 14-3-3 σ isoform (full-length for mass spectrometry and fluorescence anisotropy assays, ΔC for crystallography); made in house; host or cells: E. coli Rosetta 2(DE3)pLysS, pPROEX HTb vector
T1 sequence (P31947 1-248): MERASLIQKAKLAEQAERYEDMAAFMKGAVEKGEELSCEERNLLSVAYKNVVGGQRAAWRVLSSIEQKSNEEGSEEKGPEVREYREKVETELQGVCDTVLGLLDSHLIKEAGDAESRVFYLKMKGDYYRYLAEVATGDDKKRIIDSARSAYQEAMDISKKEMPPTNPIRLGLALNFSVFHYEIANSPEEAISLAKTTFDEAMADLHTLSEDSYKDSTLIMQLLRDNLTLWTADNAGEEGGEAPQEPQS
Summary of the method: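 Covalent binding of compounds to the native Cys38 of 14-3-3σ was monitored by LC-MS on a Waters Acquity UPLC/Xevo G2-XS Q-Tof, with samples desalted on a BEH-C4 column. Full-length wild type 14-3-3σ (100 nM) with C-RAF peptide in TRIS buffer (10 mM, pH 8.0) was incubated with compound dose series at room temperature.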

[2] = biological target: T2, 14-3-3σ/ERα (Homo sapiens, UniProt P03372+P31947); test: Fluorescence anisotropy compound titration, FAM-labeled ERα peptide; details: labeling in MS assay, peptide binding in FA assay
T2 construct: The 14-3-3 σ isoform (full-length for mass spectrometry and fluorescence anisotropy assays, ΔC for crystallography); made in house; host or cells: E. coli Rosetta 2(DE3)pLysS, pPROEX HTb vector

[3] = biological target: T2, 14-3-3σ/ERα; test: as above; format: binding; details: for EC50: 10 nM ERα-FAM labeled peptide, 1 µM 14-3-3σ, overnight incubation (24 h)
Summary of the method: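 Fluorescence anisotropy compound titration measuring stabilization of the 14-3-3σ/ERα interaction: compounds were titrated in a 2-fold dilution series (starting at 500 or 1000 µM) into a mix of 10 nM fluorescein-labeled ERα peptide and 1 µM 14-3-3σ (about EC25 of the complex) in HEPES buffer with 1% DMSO, read after overnight incubation at room temperature; EC50 from 4PL fitting.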

[4] = biological target: T2, 14-3-3σ/ERα; test: Mass spectrometry dose response, compound binding to 14-3-3σ in the presence of ERα phosphopeptide; details: 100 nM compound, 100 nM 14-3-3σ, ERα-peptide 2 µM
Summary of the method: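 Covalent labeling of Cys38 on 14-3-3σ was tracked by LC-MS on a Waters Acquity UPLC/Xevo G2-XS Q-Tof, with samples desalted on a Protein BEH-C4 column. Full-length wild type 14-3-3σ (100 nM) plus ERα phosphopeptide was mixed with compound in 10 mM TRIS, pH 8.0, at 50 μl per well. Percent bound was measured at several time points.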

[5] = biological target: T3, 14-3-3σ (Homo sapiens, UniProt P31947); test: Mass spectrometry dose response, compound binding to 14-3-3σ in the absence of peptide (apo); details: 100 nM compound, 100 nM 14-3-3σ
T3 construct: The 14-3-3 σ isoform (full-length for mass spectrometry and fluorescence anisotropy assays, ΔC for crystallography); made in house; host or cells: E. coli Rosetta 2(DE3)pLysS, pPROEX HTb vector
T3 sequence (P31947 1-248): T1 sequence (P31947 1-248)
Summary of the method: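 Covalent binding of compounds to Cys38 of full-length wild type human 14-3-3σ (100 nM) was measured by LC-MS without peptide present. Compounds from 50 mM DMSO stocks were serially diluted 3-fold and 1000 nl transferred to plates in TRIS buffer (10 mM, pH 8.0), 50 μl per well. Samples were desalted on a BEH-C4 column and analysed on a Xevo G2-XS Q-Tof at several time points.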

[6] = biological target: T1, 14-3-3σ/C-RAF; test: Fluorescence anisotropy compound titration, FAM-labeled C-RAF peptide; format: binding; details: for stabilization of 14-3-3σ/C-RAF (in words): MS and FA assays, abstract: up to 150 μM compound
[7] = biological target: T1, 14-3-3σ/C-RAF; test: as above; format: binding; details: 10 nM C-RAF-FAM labeled peptide, 5 µM 14-3-3σ, overnight incubation; read-out: EC50 value C-RAF (FA compound titration)
Summary of the method: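 A fluorescence anisotropy compound titration measured how compounds stabilize binding of 14-3-3σ to a fluorescein-labeled C-RAF peptide. Compounds were diluted 2-fold, from 500 or 1000 µM, into 10 nM labeled peptide with 5 µM 14-3-3σ, roughly its EC25, in HEPES buffer with 1% DMSO. Plates were read after overnight incubation at room temperature. EC50 values came from 4PL fits over three independent experiments.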

[8] = biological target: T2, 14-3-3σ/ERα; test: Fluorescence anisotropy protein titration, FAM-labeled ERα peptide; format: binding; details: 10 nM FAM-ERα peptide; for X Fold stabilization (100 µM compound) of 14-3-3σ/ERα: versus DMSO reference; for Kd: 100 µM compound, overnight incubation
Procedure: To evaluate compound-mediated stabilization of the 14-3-3σ/ERα complex directly, FA protein titrations were performed at a saturating concentration of compound. FA protein titrations allowed the quantification of the cooperative effect by comparing the apparent dissociation constants (appKD) of the binary and ternary complexes. 14-3-3σ was titrated into 10 nM FAM-labeled ERα peptide in the presence of DMSO or 100 μM of the compounds (Table S4). […]
diluted in buffer (10 mM HEPES, pH 7.5, 150 mM NaCl, 0.1% Tween20, 1 mg/mL Bovine Serum Albumin (BSA; Sigma-Aldrich). Final DMSO in the assay was always 1%. […]
Protein titrations were made by titrating 14-3-3σ in a 2-fold dilution series (starting at 300 µM) to a mix of fluorescein-labeled peptide (10 nM) and DMSO or compound (100 µM). Fluorescence anisotropy measurements were performed after overnight incubation at room temperature. […]
Wells containing only FAM-peptide were used to set as G-factor at 35 mP. Data reported are at endpoint. EC50 and apparent Kd values were obtained from fitting the data with a four-parameter logistic model (4PL) in GraphPad Prism 7 for Windows. Data was obtained and averaged based on either three (compound titrations) or two (protein titrations) independent experiments.

[9] = read-out: EC50 value ERα (FA compound titration)

SMILES	Percentage (%) bound of compound to 14-3-3σ, CRAF 1h [1] [%]	Percentage (%) bound of compound to 14-3-3σ, CRAF 8h [1] [%]	Percentage (%) bound of compound to 14-3-3σ, CRAF 24h ([1]; 24h) [%]	Percentage (%) bound of compound to 14-3-3σ, CRAF 24h ([1]; head prints 24h) [%]	EC50 [3, 9] [µM]	Percentage (%) bound of compound to 14-3-3σ, ERα 1h [4] [%]	Percentage (%) bound of compound to 14-3-3σ, ERα 8h [4] [%]	Percentage (%) bound of compound to 14-3-3σ, ERα 16h [4] [%]	Percentage (%) bound of compound to 14-3-3σ, ERα 24h [4] [%]	Percentage (%) bound of compound to 14-3-3σ, APO 1h [5] [%]	Percentage (%) bound of compound to 14-3-3σ, APO 8h [5] [%]	Percentage (%) bound of compound to 14-3-3σ, APO 16h [5] [%]	Percentage (%) bound of compound to 14-3-3σ, APO 24h [5] [%]	EC50 [7] [µM]	X Fold stabilization (100 µM compound) of 14-3-3σ/ERα [8] [fold]	Kd [8] [µM]	stabilization of 14-3-3σ/C-RAF (in words) [6]	also measured
CC(C)(Nc1ccccc1)C(=O)N1CCC(CNC(=O)CCl)CC1 [compound 85]	0.9	1.2	1.5	1.5	> 150	0.9	1.2	1.5	1.5	0	0	0	0	–	–	–	–	activity in MS and FA assays (in words) [2]: inactive
O=C(CCl)NCC1CCN(C(=O)C2(Nc3ccc(Cl)cc3)CCCC2)CC1 [compound 118]	2.9	3.4	23.7	11.5	–	11.2	24.1	60.1	96.6	0	0	0.8	13.0	–	–	–	–	EC50 ([3]; EC50 value ERα (FA compound titration)): 5 ± 0.4 µM; selectivity for ERα (over C-RAF, FA EC50) ([3]; FA compound titrations): greater than 30 fold; EC50 ([6]; EC50 value C-RAF (FA compound titration), 10 nM C-RAF-FAM labeled peptide, 5 µM 14-3-3σ, overnight incubation): > 150 µM
O=C(CCl)NCC1CCN(C(=O)C2(Nc3ccc(Cl)cc3)CCNCC2)CC1 [compound 131]	2.0	2.4	12.5	4.6	2 ± 0.3	54.4	82.2	94.0	98.3	1.4	2.2	5.8	14.1	> 150	30	0.049	no stabilization	–
NC1CCC(Nc2ccc(Cl)cc2)(C(=O)N2CCC(CNC(=O)CCl)CC2)CC1 (centres unmarked) [compound 137]	1.7	3.6	10.4	6.6	8 ± 1	36.3	60.4	90.0	96.4	1.4	1.9	3.2	9.3	> 150	–	–	no stabilization	–
CC1CC(Nc2ccc(Cl)cc2)(C(=O)NCC2CC3(CCN(C(=O)CCl)CC3)C2)CC(C)O1 (centres unmarked) [compound 180]	0	2.5	8.5	4.5	10 ± 2	40.8	50.1	84.4	96.1	1.4	2.9	7.3	11.5	> 150	7	0.192	–	–
